# Source: patent US20260285877A1, “Macrocyclic EGFR Inhibitor, and Preparation Method Therefor and Pharmaceutical Use Thereof” (Abbisko Therapeutics Co., Ltd., priority 2022, published 2026)
# pIC50: −log10 of the molar value.
# Assays:
# [1] = Pharmacokinetic experiment in mice; assay type: in vivo; details: mouse, plasma; ICR mice, PO 10 mg/kg (IV 2 mg/kg); read-out: Oral F
# Text: The purpose of this trial is to study the pharmacokinetic behavior of some compounds of the present invention, and the administration method is: Single oral administration (PO) to ICR mice. The compounds used in this trial are from the compounds in the specific examples of the present invention and the listed positive compounds. ICR mice male N=9 original source: Shanghai Sippr-Bk Lab Animal Co., Ltd. The compounds are weighed and dissolved in the corresponding solution (10% PG+10% Solutol®+80% pH3 citrate buffer). The mixture is then shaken well and sonicated to prepare a 1 mg/mL stock solution. Nine mice are orally administered at a dose of 10 mg/kg (or IV 2 mg/kg) after an overnight fast. About 90 μL of blood is collected via the submandibular vein per time point, heparin sodium anticoagulant is added, the sample is placed on ice after collection, and plasma is centrifuged within 1 hour (centrifugation conditions: 8,000 rpm, 6 minutes, 2-8° C.). The blood collection timepoints are 0, 0.25, 0.5, 1, 2, 4, 6, 8 and 24 h. The samples are stored in a −20° C. refrigerator. The plasma sample is 40 μL, 160 μL of ice-cold acetonitrile containing internal standard is added, vortexed for 3 minutes, and centrifuged at 11,000 rpm for 5 minutes. 100 μL of the supernatant is taken and added to 100 μL of water, 5 μL of the sample is taken and injected into LC/MS/MS for analysis.
# [2] = system: Ba/F3 EGFR-L858R-T790M-C797S (LTC); assay: Cell proliferation assay (CellTiter-Glo), Ba/F3 EGFR-L858R-T790M-C797S; assay type: cell-based; details: Mus musculus, BaF3; Ba/F3 EGFR-L858R-T790M-C797S cells, 72 hour incubation, CTG
# Protocol: (§1) • (1) Harvest cells in a logarithmic growth phase and count the cells using a platelet counter.
# (§2) • (1) Add 10 μL PBS to each well of the TO plate containing cells. • (2) Thaw the CTG reagent and equilibrate the plate to room temperature for 30 minutes. • (3) Add an equal volume of CTG solution to each well. • (4) Lyse cells by shaking on an orbital shaker for 5 minutes. • (5) Leave the plate at room temperature for 20 minutes to stabilize the luminescence signal. • (6) Read the TO fluorescence signal.
# (§3) Then add 10 μL of the drug solution concentration to individual wells of the 96-well plate seeded with cells.
# (§4) • (1) Thaw the CTG reagent and equilibrate the plate to room temperature for 30 minutes. • (2) Add an equal volume of CTG solution to each well. • (3) Lyse cells by shaking on an orbital shaker for 5 minutes. • (4) Leave the plate at room temperature for 20 minutes to stabilize the fluorescence signal. • (5) Read fluorescence value.
# (§5) Analyze the data by using GraphPad Prism 7.0 software, and use Non-linear S-curve regression to fit the dose-response curves, to calculate the IC50 values (in nM).
# [3] = system: Ba/F3 EGFR-L858R-C797S (LC); assay: Cell proliferation assay (CellTiter-Glo), Ba/F3 EGFR-L858R-C797S; assay type: cell-based; details: Mus musculus, BaF3; Ba/F3 EGFR-L858R-C797S cells, 72 hour incubation, CTG
# Protocol: as §1, §2, §3, §4, §5
# A431 WT = assay: Cell proliferation assay (CellTiter-Glo), A431 WT; assay type: cell-based; details: Homo sapiens, A-431; A431 WT cells, 72 hour incubation, CTG
# Protocol: as §1, §2, §3, §4, §5
# [4] = phase III FLAURA, compared with first-generation EGFR TKIs; cited from earlier work
structure (smiles),measurement,setting,value
"CCS(=O)(=O)C[C@H]1CCN(c2nn3c4cc(ncc24)Nc2ccnc(n2)-c2cnn(C)c2OCC2(CCCC2)C3)C1 [Example 35, (S)-3′-(3-((ethylsulfonyl)meth-yl)pyrrolidin-1-yl)-1′-meth-ylspiro(cyclopentane-1,6′-8-oxa-3-aza-4(6,1)-pyrazolo [4,3-c]pyridina-2(2,4)-pyri-midina-1(4,5)-pyrazolacyclo-octaphane)]",bioavailability,[1],81.5%
CC(=O)N[C@@H]1CCN(c2nn3c4cc(ncc24)Nc2ccnc(n2)-c2cnn(C)c2OCC2(CCCC2)C3)C1 [Example 49],pIC50,[2],7.53
same,pIC50,[3],7.22
same,pIC50,A431 WT,6.03
C=CC(=O)Nc1cc(Nc2nccc(-c3cn(C)c4ccccc34)n2)c(OC)cc1N(C)CCN(C)C [Osimertinib],overall survival,[4],38.6 months
same,progression-free survival,[4],18.9 months
